Measurements published in article PMC8748916, “Microbial enzymes induce colitis by reactivating triclosan in the mouse gastrointestinal tract” (Nature Communications, 2022).
Where “and” joins values, the source holds several entries; their conditions need not be identical. Equal entries are not always repeated.

Experiments:
[1] = tested on: epithelial cells in the ileum, proximal or distal colon; design: method as in PMID 32170007; conditions: proximal or distal colon of the treated mice; cited from earlier work
[2] = tested on: F. prausnitzii 2-L1 (Fp2-L1) GUS; assay: In vitro IC50 assay (TCS-G to TCS conversion, HPLC); type: biochemical; conditions: for F. prausnitzii 2-L1 GUS %inhibition: Fig. 4b, triplicate
mammalian GUS enzyme = tested on: mammalian GUS enzyme; design: method as in PMID 30062115; conditions: cited from earlier work
F. prausnitzii GUS = F. prausnitzii GUS (Faecalibacterium prausnitzii, UniProt C7H4D2); assay: In vitro IC50 assay (TCS-G to TCS conversion, HPLC); type: biochemical
Procedure: (§1) Reaction mixtures containing 10 µL GUS (10 nM final), 10 µL TCS-G (200 µM final), 5 µL inhibitor (various concentrations), and 25 µL buffer (50 mM HEPES, 50 mM NaCl, various pH) or (50 mM sodium acetate, 50 mM NaCl, various pH) were incubated for 10 min and quenched with 50 µL 25% trichloroacetic acid. Samples were centrifuged 10 min at 16,000 × g, and the supernatant was analyzed using the method described for the catalytic efficiency assay. Inhibition was calculated by the equation below:1 %inhibition=100×(1−(AUCinh−AUCmax)/(AUCmin−AUCmax)) where AUCmin is the signal of the uninhibited reaction, AUCmax is the signal of the 100% inhibited reaction, and AUCinh is the signal of the reaction at a given concentration of inhibitor. Percent inhibition values were plotted against the log of inhibitor concentration, and GraphPad Prism 8.0 was used to determine IC50 values.

Clostridiales sp. GUS = assay: as above; type: biochemical; conditions: for Clostridiales sp. GUS % inhibition: Fig. 4c, triplicate
Procedure: as §1

E. eligens GUS = E. eligens GUS (Lachnospira eligens, UniProt C4Z6Z2); assay: as above; type: biochemical
Procedure: as §1

R. hominis 3 GUS = molecular target: T1, R. hominis 3 GUS (Roseburia hominis, UniProt A0A395V874); assay: as above; type: biochemical
T1 sequence (A0A395V874 1-734): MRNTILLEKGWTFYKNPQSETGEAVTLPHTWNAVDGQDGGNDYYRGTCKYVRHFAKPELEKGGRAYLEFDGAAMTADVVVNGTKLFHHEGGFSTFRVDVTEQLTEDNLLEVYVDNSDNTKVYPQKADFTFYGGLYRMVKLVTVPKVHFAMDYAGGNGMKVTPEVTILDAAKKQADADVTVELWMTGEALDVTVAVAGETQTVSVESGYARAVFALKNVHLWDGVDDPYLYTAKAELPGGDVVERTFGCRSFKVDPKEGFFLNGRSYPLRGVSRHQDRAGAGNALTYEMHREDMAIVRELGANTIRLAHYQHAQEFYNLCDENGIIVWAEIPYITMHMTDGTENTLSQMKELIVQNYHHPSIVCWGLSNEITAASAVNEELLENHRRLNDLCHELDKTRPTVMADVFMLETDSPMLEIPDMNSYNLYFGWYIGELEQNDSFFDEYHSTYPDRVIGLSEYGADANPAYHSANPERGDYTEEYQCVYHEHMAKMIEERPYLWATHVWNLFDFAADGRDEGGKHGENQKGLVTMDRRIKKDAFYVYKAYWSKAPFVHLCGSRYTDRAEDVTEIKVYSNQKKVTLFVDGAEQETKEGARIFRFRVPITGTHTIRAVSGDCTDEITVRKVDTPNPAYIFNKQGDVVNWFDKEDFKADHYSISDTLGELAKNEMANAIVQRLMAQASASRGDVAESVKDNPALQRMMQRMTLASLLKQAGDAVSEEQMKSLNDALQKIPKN
Procedure: as §1

C. perfringens GUS = C. perfringens GUS (Clostridium perfringens, UniProt Q8XP19); assay: biochemical
[3] = conversion of TCS-G (200 µM) to TCS, Loop 1 GUS
[4] = GUSi 0.411523 uM, Fig. 4b, triplicate
[5] = GUSi 3.7037 uM, Fig. 4b, triplicate
[6] = GUSi 11.1111 uM, Fig. 4b, triplicate
[7] = GUSi 33.3333 uM, Fig. 4b, triplicate
[8] = GUSi 100 uM, Fig. 4b, triplicate
[9] = GUSi 33.3333 uM, Fig. 4c, triplicate
[10] = read-out: C. perfringens GUS % inhibition

## C1CCc2c(c(N3CCOCC3)nc3sc4c(N5CCNCC5)nnnc4c23)C1 [GUSi, UNC10201652]
[1]
  effect on the proliferation of epithelial cells: no effect
[2]; GUSi 0.0457247 uM
  F. prausnitzii 2-L1 GUS %inhibition: 0% and 0.2667%
[2]; GUSi 0.137174 uM
  F. prausnitzii 2-L1 GUS %inhibition: 0% and 0.1263%
[2]; GUSi 0.411523 uM
  F. prausnitzii 2-L1 GUS %inhibition: 0%
[2]; GUSi 3.7037 uM
  F. prausnitzii 2-L1 GUS %inhibition: 74.6624% and 62.5632% and 66.5428%
[2]; GUSi 11.1111 uM
  F. prausnitzii 2-L1 GUS %inhibition: 93.6484% and 88.7563% and 88.6045%
[2]; GUSi 33.3333 uM
  F. prausnitzii 2-L1 GUS %inhibition: 99.4351% and 98.0067% and 94.7151%
[2]; GUSi 100 uM
  F. prausnitzii 2-L1 GUS %inhibition: 100.964% and 99.7754% and 96.4492%
[2]; [3]
  IC50: 2.8 ± 0.1 µM
Mammalian GUS enzyme
  effect on the activity of mammalian GUS enzyme: no effect
F. prausnitzii GUS; [4]
  F. prausnitzii GUS % inhibition: -3.256% and -6.409% and 1.703%
F. prausnitzii GUS; [5]
  F. prausnitzii GUS % inhibition: 31.508% and 41.6292%
  inhibition at 3.7037 µM: 30.3%
F. prausnitzii GUS; [6]
  F. prausnitzii GUS % inhibition: 65.4843% and 60.2667%
  inhibition at 11.1111 µM: 68.7%
F. prausnitzii GUS; [7]
  F. prausnitzii GUS % inhibition: 79.5271% and 77.5064%
  inhibition at 33.3333 µM: 74.1%
F. prausnitzii GUS; [8]
  F. prausnitzii GUS % inhibition: 90.4792% and 87.3233%
  inhibition at 100 µM: 85.7%
F. prausnitzii GUS; [3]
  IC50: 4.9 ± 0.8 µM
Clostridiales sp. GUS; GUSi 11.1111 uM
  Clostridiales sp. GUS % inhibition: 28.4771% and 43.1829% and 36.9382%
Clostridiales sp. GUS; GUSi 33.3333 uM
  Clostridiales sp. GUS % inhibition: 61.452% and 67.3548% and 67.8202%
Clostridiales sp. GUS; GUSi 100 uM
  Clostridiales sp. GUS % inhibition: 79.8338% and 82.8373% and 85.2439%
Clostridiales sp. GUS; conversion of TCS-G (200 µM) to TCS, FMN-binding GUS
  IC50: 4 ± 1 µM
E. eligens GUS
  IC50: 3.1 ± 0.1 µM
E. eligens GUS; GUSi 0.0457247 uM, Fig. 4b, triplicate
  inhibition at 0.0457247 µM: 0%
E. eligens GUS; GUSi 0.137174 uM, Fig. 4b, triplicate
  inhibition at 0.137174 µM: 0%
E. eligens GUS; [4]
  inhibition at 0.411523 µM: 0%
E. eligens GUS; GUSi 1.23457 uM, Fig. 4b, triplicate
  E. eligens GUS % inhibition: 2.145% and 1.672%
E. eligens GUS; [5]
  E. eligens GUS % inhibition: 67.2992% and 67.384%
  inhibition at 3.7037 µM: 64.7%
E. eligens GUS; [6]
  E. eligens GUS % inhibition: 95.2204% and 97.0627%
  inhibition at 11.1111 µM: 90%
E. eligens GUS; [7]
  E. eligens GUS % inhibition: 103.909% and 106.718%
  inhibition at 33.3333 µM: 97.2%
E. eligens GUS; [8]
  E. eligens GUS % inhibition: 105.208% and 106.762%
  inhibition at 100 µM: 97.5%
R. hominis 3 GUS
  IC50: > 100 µM
R. hominis 3 GUS; GUSi 3.7037 uM, Fig. 4c, triplicate
  R. hominis 3 GUS % inhibition: 2.389% and -2.0752% and 4.091%
R. hominis 3 GUS; [9]
  R. hominis 3 GUS % inhibition: 18.9209% and 35.4136%
  inhibition at 33.3333 µM: 23.2%
R. hominis 3 GUS; GUSi 100 uM, Fig. 4c, triplicate
  R. hominis 3 GUS % inhibition: 34.5947% and 39.5508% and 57.3604%
C. perfringens GUS
  IC50: 0.64 ± 0.04 µM
C. perfringens GUS; [10]
  inhibition at 1.23457 µM: 78%
  inhibition at 3.7037 µM: 93.9%
  inhibition at 11.1111 µM: 97.7%
  inhibition at 33.3333 µM: 98.6%
  inhibition at 100 µM: 99.4%
